From US20060264372A1, “Process for the synchronization of ovulation for timed breeding without heat detection” (priority 2003, published 2006)

What was measured:
mature postpartum sows = assay: Intravulvar deslorelin at estrus detection in mature postpartum sows, AI breeding (Example 2); format: in vivo, swine; conditions: per litter; 50 μg intravulvar at first estrus detection
Method: Sows were assigned randomly in blocks of two to either control or to be injected intravulvar with 50 mcg of deslorelin in SAIB at the time of estrus detection for sows first detected in estrus in the a.m. and 12 hours later for those first detected in estrus in the p.m. Treated animals were bred AI upon detected estrus and again 24 hours later if still in estrus. Controls received a saline injection on first detected estrus behavior estrus detection and were bred according to the farm's normal procedures. Saline sows bred at detected estrus consistent with farm sows. Deslorelin sows injected intravulvar with 1 ml (50 μg deslorelin acetate) at first estrus detection and AI, then AI again if in estrus the next day. Live piglet number 0.6> in Deslorelin versus Saline sows.

postpartum sows = assay: Timed deslorelin injection 96 hours post-weaning and single timed insemination without estrus detection (Example 3); format: in vivo, swine; conditions: 50 mcg in SAIB 96 hours post-weaning
Method: Approximately 170 postpartum sows were randomly divided into two equal groups comprised of controls and treated. Following weaning, the controls were detected for estrus and bred following the normal standard operating procedures for the farms on which they resided. The treated sows received a 50 mcg dose of deslorelin in SAIB at 96 hours post-weaning and were bred with a single insemination 28±2 hours later with no regard to estrus detection. The sows were examined for pregnancy by ultrasound at 21 days and slaughtered around 28 days post breeding. The entire reproductive tract was removed and corpora lutea and embryos were counted.

## CCNC(=O)[C@@H]1CCCN1C(=O)[C@H](CCCN=C(N)N)NC(=O)[C@H](CC(C)C)NC(=O)[C@@H](Cc1c[nH]c2ccccc12)NC(=O)[C@H](Cc1ccc(O)cc1)NC(=O)[C@H](CO)NC(=O)[C@H](Cc1c[nH]c2ccccc12)NC(=O)[C@H](Cc1cnc[nH]1)NC(=O)[C@@H]1CCC(=O)N1 [Deslorelin, deslorelin]
Mature postpartum sows
  Live piglet number, greater versus Saline sows: 0.6
Postpartum sows
  Embryo Survival: 64%
Postpartum sows; single insemination 28±2 hours later, 84 in group
  Sows Pregnant: 60
